Experimental data reported in patent publication US7674620B2, “Derivation of terminally differentiated dopaminergic neurons from human embryonic stem cells” (Reliance Life Sciences Pvt. Ltd., priority 2003, dated 2010).

Tests used:
[1] = test system: neuroprogenitor cells derived from human embryonic stem cells; test: Differentiation of neuroprogenitor cells into TH positive (dopaminergic) neurons, immunofluorescence; type: cell-based; settings: present in the Neurobasal medium
Excerpt: Development of dopaminergic neurons in vivo depends on the regulated action of extracellular signaling molecules. These molecules activate a cascade of transcription factors with lineage-restricted expression. These transcription factors are responsible for increasing the expression of a specific set of genes involved in the development of the dopaminergic phenotype. To encourage the expanded neuroprogenitors cells generated using the above protocol into functional dopaminergic neurons, the growth factors bFGF and EGF were first withdrawn from the cells. Next, differentiation of the neuroprogenitors cells into dopaminergic neurons was induced by culturing the cells in Neurobasal medium for 30-50 days. […]
The differentiated neuronal cell types generated according to the present disclosure were evaluated both by the overall morphology of the cells, as well as the phenotypes identified by immunoflourescence. […]
The differentiated cells were also analyzed by double-labeling the cells with primary antibodies to TH (green), along with MAP-2, DAT, Nurr-1, β-Tubulin, FITC-labeled secondary antibodies (Texas red) respectively (FIG. 8). […] The cell density of dopaminergic neurons was quantified by counting the numbers of TH-positive cells and MAP-2-positive cells per field in randomly selected fields using a 40× objective lens. The percent proportion of TH-positive cells was calculated (FIG. 9). […]

[2] = test system: embryonic stem cell-derived dopaminergic neurons; test: Dopamine release into conditioned medium by RP-HPLC; type: cell-based, human; settings: 56 mM for 15 minutes, 7, 22, 37 days of differentiation
Method: The cells were stimulated with 56 mM KCl for 15 minutes to induce secretion of dopamine; the culture supernatant was stabilized with 7.5% orthrophosphoric acid and sodium metabisulphite before analysis by RP-HPLC.
(§1) To begin, cells were collected at different stages of the disclosed method: undifferentiated ES cells, embryoid bodies, Nestin-positive neuroprogenitor cells, NCAM-positive cells, and differentiated cells isolated after 7, 22, and 37 days of differentiation in Neurobasal medium. Before collection, the cells differentiated in Neurobasal medium were first stimulated to induce dopamine secretion by the addition of 56 mM KCl in HBSS for 15 minutes. Approximately 5×10^6 cells were trypsinised and pelleted by centrifugation. The cells were then sonicated in cold 1N perchloric acid with antioxidants (0.2 g/l sodium metabisulphite), and centrifuged at 15,000 rpm/min for 20 minutes at 4° C. The supematent was extracted and stored at −70° C. for subsequent determination of the intracellular dopamine concentration by RP-HPLC. Dopamine levels were determined in the cell lysates and culture supematent (48 hrs after the last medium change). The culture supematent was immediately stabilized with 7.5% orthophosphoric acid and sodium metabisulphite.

[3] = test system: embryonic stem cell-derived dopaminergic neurons; test: Intracellular dopamine in cell lysates by RP-HPLC; type: cell-based, human; settings: for Dopamine concentration in cell lysates by HPLC: 56 mM KCl
Method: One definitive characteristic of a dopaminergic neuron is the production of dopamine. Therefore, the functional capacity of embryonic stem cell-derived dopaminergic neurons to produce dopamine was evaluated by directly measuring the intracellular dopamine levels using Reverse Phase HPLC (RP-HPLC). The concentration of dopamine detected in each sample was determined by comparison with a standard solution of dopamine injected into the column immediately before and after each experiment.
as §1

[4] = test system: embryonic stem cell-derived dopaminergic neurons; test: Intracellular dopamine in cell lysates by RP-HPLC; type: cell-based, human; settings: cell cultures incubated with the neurotoxin

IL-1β: Interleukin-1β, growth factor in the Neurobasal medium
effect on amount of TH positive neurons [1]: appears to increase the amount of TH positive neurons

[Cl-].[K+] [KCl]
dopamine release into the conditioned medium (FIG. 14) [2]: causes dopamine release
dopamine release into the conditioned medium (FIG. 14) ([2]; listed as KCL): increase
Dopamine concentration in cell lysates by HPLC ([3]; 7 d, line #3, after 'Addition of growth factors'): 5.5 µg/mL
Dopamine concentration in cell lysates by HPLC ([3]; 7 d, line #5, after 'N-acetyl cysteine along with growth factors'): 8.8 µg/mL
Dopamine concentration in cell lysates by HPLC ([3]; 7 d, line #7, after 'Ascorbic acid along with growth factors'): 6.9 µg/mL
Dopamine concentration in cell lysates by HPLC ([3]; 22 d, line #3, after 'Addition of growth factors'): 22 µg/mL
Dopamine concentration in cell lysates by HPLC ([3]; 22 d, line #5, after 'N-acetyl cysteine along with growth factors'): 30.9 µg/mL
Dopamine concentration in cell lysates by HPLC ([3]; 22 d, line #7, after 'Ascorbic acid along with growth factors'): 5.5 µg/mL
Dopamine concentration in cell lysates by HPLC ([3]; 37 d, line #3, after 'Addition of growth factors'): 7.2 µg/mL
Dopamine concentration in cell lysates by HPLC ([3]; 37 d, line #5, after 'N-acetyl cysteine along with growth factors'): 10 µg/mL
Dopamine concentration in cell lysates by HPLC ([3]; 37 d, line #7, after 'Ascorbic acid along with growth factors'): 10 µg/mL

CN1CC=C(c2ccccc2)CC1.Cl [MPTP, N-methyl-4-phenyl 1,2,3,6-tetrahydropyridine hydrochloride]
dopamine in cell lysates of incubated cell cultures by RP-HPLC [4]: no dopamine was detected
intracellular dopamine in cell lysates of treated cells (FIG. 13) ([3]; 7 days of differentiation): No dopamine was detected
intracellular dopamine in cell lysates of treated cells (FIG. 13) ([3]; 22 days of differentiation): No dopamine was detected
intracellular dopamine in cell lysates of treated cells (FIG. 13) ([3]; 37 days of differentiation): reduced
